Results as given in ChEMBL document CHEMBL1152192, “Carbonic anhydrase inhibitors. Inhibition of the beta-class enzyme from the yeast Saccharomyces cerevisiae with anions” (Bioorg Med Chem Lett, 2008).

Key:
[1] = biological target: T1, Carbonic anhydrase (Saccharomyces cerevisiae S288c, UniProt P53615); experiment: Inhibition of Saccharomyces cerevisiae carbonic anhydrase by stopped-flow CO2 hydration assay
T1 sequence (P53615 whole entry): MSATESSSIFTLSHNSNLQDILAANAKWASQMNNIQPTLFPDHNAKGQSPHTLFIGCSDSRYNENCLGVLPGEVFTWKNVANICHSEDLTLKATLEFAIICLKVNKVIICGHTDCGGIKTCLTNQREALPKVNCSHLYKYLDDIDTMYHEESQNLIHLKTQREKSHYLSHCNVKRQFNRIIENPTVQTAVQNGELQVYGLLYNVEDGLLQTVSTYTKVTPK

[2] = biological target: T1, Carbonic anhydrase; experiment: Inhibition of Saccharomyces cerevisiae carbonic anhydrase overexpressed in Escherichia coli BL21 (DE3) by CO2 hydration stopped-flow assay
[3] = biological target: T2, Carbonic anhydrase (Candida albicans (strain SC5314 / ATCC MYA-2876) (Yeast), UniProt Q5AJ71); experiment: Inhibition of Candida albicans carbonic anhydrase overexpressed in Escherichia coli BL21 (DE3) by CO2 hydration stopped-flow assay
T2 sequence (Q5AJ71 whole entry): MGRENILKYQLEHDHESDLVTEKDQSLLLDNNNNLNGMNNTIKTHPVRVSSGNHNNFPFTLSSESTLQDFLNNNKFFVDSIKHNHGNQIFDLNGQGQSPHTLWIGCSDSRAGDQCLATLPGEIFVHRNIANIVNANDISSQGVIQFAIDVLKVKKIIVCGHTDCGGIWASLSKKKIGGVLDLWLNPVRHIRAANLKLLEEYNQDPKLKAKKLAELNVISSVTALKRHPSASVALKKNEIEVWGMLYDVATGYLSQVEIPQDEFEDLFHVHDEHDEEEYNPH

| Ki [1] [µM] | Compound | Ki [2] [µM] | Ki [3] [µM] |
| --- | --- | --- | --- |
| 16 | CCOc1ccc2nc(S(N)(=O)=O)sc2c1 [ETHOXZOLAMIDE] | – | – |
| – | OB(O)c1ccccc1 [PHENYLBORONIC ACID] | 38200 | 30900 |
| – | NS(=O)(=O)O [SULFAMATE] | 840 | 700 |
| – | NS(N)(=O)=O [SULFAMIDE] | 8.7 | 300 |
